Source: patent US7732480B2, “Bicyclic compounds as modulators of androgen receptor function and method” (Bristol-Myers Squibb Company, priority 2004, dated 2010)

What was measured:
AR = biological target: T1, AR (Rattus norvegicus, UniProt P15207); details: castrated rats
T1 sequence (P15207 1-902): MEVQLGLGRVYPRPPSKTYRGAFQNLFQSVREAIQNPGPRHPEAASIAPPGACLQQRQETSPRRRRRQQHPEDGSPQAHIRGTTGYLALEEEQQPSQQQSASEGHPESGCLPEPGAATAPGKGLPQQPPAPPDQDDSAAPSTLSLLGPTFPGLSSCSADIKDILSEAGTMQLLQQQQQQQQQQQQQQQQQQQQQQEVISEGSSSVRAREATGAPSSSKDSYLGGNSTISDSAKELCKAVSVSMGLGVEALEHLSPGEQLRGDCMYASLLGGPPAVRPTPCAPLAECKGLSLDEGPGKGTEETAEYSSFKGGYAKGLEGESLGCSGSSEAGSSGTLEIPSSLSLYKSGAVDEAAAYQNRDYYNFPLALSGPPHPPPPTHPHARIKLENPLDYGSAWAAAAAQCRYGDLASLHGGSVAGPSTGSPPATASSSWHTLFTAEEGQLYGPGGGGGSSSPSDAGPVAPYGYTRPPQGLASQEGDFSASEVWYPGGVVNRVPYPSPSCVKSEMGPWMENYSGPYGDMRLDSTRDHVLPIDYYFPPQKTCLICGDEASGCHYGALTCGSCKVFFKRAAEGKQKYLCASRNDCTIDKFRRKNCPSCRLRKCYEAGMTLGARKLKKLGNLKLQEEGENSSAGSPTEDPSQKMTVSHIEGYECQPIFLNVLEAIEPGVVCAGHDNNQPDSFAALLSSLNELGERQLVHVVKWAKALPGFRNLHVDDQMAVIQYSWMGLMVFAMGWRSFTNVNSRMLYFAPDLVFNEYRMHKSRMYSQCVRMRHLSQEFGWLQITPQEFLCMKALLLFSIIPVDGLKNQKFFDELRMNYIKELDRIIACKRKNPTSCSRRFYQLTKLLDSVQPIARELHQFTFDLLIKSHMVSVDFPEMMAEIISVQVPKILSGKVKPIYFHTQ
Source text: The activity of compounds of the present invention as AR agonists was investigated in an immature male rat model, a recognized test of anabolic effects in muscle and sustaining effects in sex organs for a given compound, as described in L. G. Hershberger et al., Proc. Soc. […] Biol. Med., 83, 175 (1953); B. L. Beyler et al, “Methods for evaluating anabolic and catabolic agents in laboratory animals”, J. Amer. Med. Women's Ass., 23, 708 (1968); H. Fukuda et al., “Investigations of the levator ani muscle as an anabolic steroid assay”, Nago Dai. Yak. Ken. Nem. 14, 84 (1966) the disclosures of which are herein incorporated by reference.
The basis of this assay lies in the well-defined action of androgenic agents on the maintenance and growth of muscle tissues and sexual accessory organs in animals and man. […] J. Anat. […] Ital. Biol. Sper. […] II. […] Ital. Biol. Sper. 42, 1600 (1966); A. Boris et al., Steroids 15, 61 (1970). As described above, the effects of androgens on maintenance of male sexual accessory organs, such as the prostate and seminal vesicles, is well described. Castration results in rapid involution and atrophy of the prostate and seminal vesicles. This effect can be reversed by exogenous addition of androgens. […]

glucocorticoid receptor = glucocorticoid receptor (Homo sapiens, UniProt P04150); details: concentration ≦10 μM; A549 cells, 10 ng/mL PMA, 7 h
Protocol: The AP-1 assay is a cell-based luciferase reporter assay. A549 cells, which contain endogenous glucocorticoid receptor, were stably transfected with an AP-1 DNA binding site attached to the luciferase gene. Cells are then grown in RPMI+10% fetal calf serum (charcoal-treated)+Penicillin/Streptomycin with 0.5 mg/mL geneticin. Cells are plated the day before the assay at approximately 40000 cells/well. On assay day, the media is removed by aspiration and 20 μL assay buffer (RPMI without phenol red+10% FCS (charcoal-treated)+Pen/Strep) is added to each well. At this point either 20 μL assay buffer (control experiments), the compounds of the present invention (“test compounds”) (dissolved in DMSO and added at varying concentrations) or dexamethasome (100 nM in DMSO, positive control) are added to each well. The plates are then pre-incubated for 15 min at 37° C., followed by stimulation of the cells with 10 ng/mL PMA. The plates are then incubated for 7 h at 37° C. after which 40 μL luciferase substrate reagent is added to each well. Activity is measured by analysis in a luminometer as compared to control experiments treated with buffer or dexamethasome.

wild type AR = details: read-out: Kd for [3H]-DHT; MDA 453 cells (wild type AR), Scatchard analysis
Source text: For the saturation analysis, the difference between the total binding and the non-specific binding, was defined as specific binding. […] See e.g. D. Rodbard, Mathematics and statistics of ligand assays: an illustrated guide: In: J. Langon and J. J. Clapp, eds., Ligand Assay, Masson Publishing U.S.A., Inc., New York, pp. 45-99, (1981), the disclosure of which is herein incorporated by reference.
Two replicates were used for each sample.
[formula] After correcting for non-specific binding, IC50 values were determined. […] C2C12 Mouse Myoblast Transactivation Assay

Chain of glucocorticoid receptor (P04150 whole entry): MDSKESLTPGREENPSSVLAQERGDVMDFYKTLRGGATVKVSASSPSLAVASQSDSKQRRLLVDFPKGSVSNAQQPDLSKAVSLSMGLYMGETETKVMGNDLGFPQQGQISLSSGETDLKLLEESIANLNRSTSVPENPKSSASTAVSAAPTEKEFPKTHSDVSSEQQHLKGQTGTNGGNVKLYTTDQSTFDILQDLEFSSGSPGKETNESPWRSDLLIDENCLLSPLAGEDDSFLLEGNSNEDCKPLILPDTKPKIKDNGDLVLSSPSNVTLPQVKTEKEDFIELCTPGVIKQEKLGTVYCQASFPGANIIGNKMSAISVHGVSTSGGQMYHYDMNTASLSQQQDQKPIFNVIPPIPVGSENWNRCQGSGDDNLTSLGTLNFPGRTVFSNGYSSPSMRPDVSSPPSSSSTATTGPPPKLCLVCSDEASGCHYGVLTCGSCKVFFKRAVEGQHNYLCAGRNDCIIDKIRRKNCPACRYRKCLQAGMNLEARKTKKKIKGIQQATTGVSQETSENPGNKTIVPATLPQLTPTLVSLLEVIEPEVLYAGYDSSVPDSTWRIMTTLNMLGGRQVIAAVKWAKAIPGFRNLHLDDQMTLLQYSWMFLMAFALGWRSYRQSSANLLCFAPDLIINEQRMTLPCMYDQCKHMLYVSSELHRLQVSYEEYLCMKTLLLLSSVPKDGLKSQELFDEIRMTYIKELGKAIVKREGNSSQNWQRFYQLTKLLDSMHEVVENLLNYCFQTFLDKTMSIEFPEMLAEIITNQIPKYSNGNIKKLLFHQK

Compound: CCC(=O)O[C@H]1CC[C@H]2[C@@H]3CCC4=CC(=O)CC[C@]4(C)[C@H]3CC[C@]12C [TP, testosterone propionate]
- EC50 (increase in organ weight) (AR): ~0.03 mg
- potency relative to free T (AR; organ weight increase): 10-30 fold

Compound: C[C@@H]1C[C@H]2[C@@H]3CCC4=CC(=O)C=C[C@]4(C)[C@@]3(F)[C@@H](O)C[C@]2(C)[C@@]1(O)C(=O)CO [dexamethasone]
- % inhibition of the AP-1 reporter system vs buffer control with PMA (glucocorticoid receptor): 65%

Compound: tritiated dihydrotestosterone [[^3H]-DHT]
- Kd (wild type AR): 700 pM
